{
  "source": "patent US6593369B2",
  "about": "“Methods, compositions, and kits for enhancing female sexual desire and responsiveness” (Vivus, Inc., priority 1997, dated 2003)",
  "key": {"clitoris [1]": {"test_system": "clitoris", "assay": "Measurement of clitoral skin temperature after topical application to the clitoris", "assay_type": "in vivo, human", "text": "2. Measurement of clitoral skin temperature:\nA highly sensitive thermocouple capable of determining changes in skin temperature of 0.002 degrees Fahrenheit was connected to a computer-based recording device (F1000 by Focused Technology, Inc.) and used to measure changes in clitoral skin temperature. The patient changed from their clothes into a gown and was placed in a semi-reclining position in a comfortable recliner. Room temperature was controlled at 76 degrees F. (±1) and no air drafts were present. The thermocouple was coated with a small amount of lubricating jelly and placed in a labial skin fold adjacent to the clitoris. A period of equilibration (˜15 minutes) allowed the measured temperature to stabilize. Next, precise doses of various pharmaceuticals were applied as solutions directly to the clitoris by a calibrated micropipette (Justor 1100DG, Sigma; St. Louis, Mo.). Typical volumes used were 20-50 microliters. Clitoral temperatures were continually measured and printed for analysis. Increases in skin temperature directly correlate with changes in cutaneous blood flow. See Birnbaum (U.S. Pat. No. 4,311,707) for an example of using this method to compare the relative vasodilatory potency of topical prostaglandins. Changes in skin temperature are reported as maximum recorded temperature in an interval minus the temperature at the end of the equilibration period. The magnitudes of these recorded temperature changes may be used as a measurement of the change in clitoral blood flow.\n(§1) 1. Solutions of prostaglandin E-1 and E-2 were prepared by dissolving weighed amounts of the prostaglandin in triacetin to produce a concentrated stock solution. Serial dilutions of this stock solution were made by a micropipette. Since triacetin can partially hydrolyze on standing to produce traces of acetic acid, the triacetin was treated with a small amount of a concentration potassium bicarbonate solution to remove any acetic acid, then dried with magnesium sulfate and filtered to give a triacetin free of acid or water. Solutions were used the same day that they were made. Concentrations of prostaglandin varied from 2.0-1,000 micrograms per milliliter of triacetin. Following equilibration of clitoral temperature, a dose of triacetin was applied to the clitoris prior to active drug solutions to determine the effect of the carrier on the clitoris.\n(§2) 2. R-alphamethylhistamine hydrochloride is not soluble in triacetin but is soluble in saline. Normal saline +2 millimolar potassium phosphate at pH 7.4 was used to prepare solutions of R-alphamethylhistamine hydrochloride with concentrations from 2.5-100 micrograms per milliliter of saline.\n(§3) Solutions were applied directly to the clitoris by means of a calibrated micropipette (Justor 1100DG, Sigma; St. Louis, Mo.)."}, "clitoral artery": {"test_system": "clitoral artery", "assay": "Measurement of clitoral blood flow by ultrasound (Doppler velocitometer)", "assay_type": "in vivo, human", "conditions": "Patient No. 1; for Change in Clitoral Blood Flow: peak systolic flow vs baseline; for Change in Clitoral Blood Flow, percent in brackets: vs baseline", "text": "1. Measurement of clitoral blood flow by ultrasound:\nClitoral blood flow was estimated by utilizing the Knoll-Midas ultrasonic Doppler velocitometer (Urometrics, Inc.). The ultrasound probe was manually positioned over the middle of the clitoral body as it courses superficially through the perineum between the external vaginal opening and the end of the clitoris (glans clitoris). […] This method is analogous to that used in measuring the cavernosal artery velocity in the penis. The clitoral artery was easily visualized. Measurements were made at baseline and at various time intervals following the application of a drug to the clitoris. Peak systolic blood flow at baseline was compared to peak systolic blood flow following drug administration as a method of comparing relative efficacy in inducing clitoral artery vasodilatation in a manner analogous to studies of such drugs in men.\nas §1, §3"}, "clitoris [2]": {"test_system": "clitoris", "assay": "Patient subjective reports of sexual arousal and symptoms after application to the clitoris", "assay_type": "in vivo, human", "method": "3. Patient Subjective Reports:\nPatient reports of symptoms and effects of agents on sexual arousal measures (such as warmth and tingling, vaginal lubrication and excitation) were recorded. Blood pressure and pulse were also recorded. Different drugs were given on different days. Some series of drug titrations were recorded on several days.\nas §1, §2, §3"}, "clitoris [3]": {"test_system": "clitoris", "assay": "Subjective examples: composition applied directly to the clitoris of female subjects", "assay_type": "in vivo, human", "text": "The clitoris is often retracted or hidden under the clitoral hood. Thus, prior to administration of the present composition, the clitoral hood should be retracted with the finger of one hand, and the clitoral hood should be held back as the dose is applied. IV. Subjective Examples"}, "[4]": {"assay": "Chemical stability of prostaglandin preparations", "assay_type": "physicochemical", "conditions": "composition containing a citrate salt or tocopherol"}, "[5]": {"conditions": "Patient No. 1, 0.020 mcg in triacetin on clitoris"}, "[6]": {"conditions": "Patient No. 1, 0.200 mcg in triacetin on clitoris"}, "[7]": {"conditions": "Patient No. 1, 0.400 mcg in triacetin on clitoris"}, "[8]": {"conditions": "Patient No. 1, 1.000 mcg in triacetin on clitoris"}, "[9]": {"conditions": "Patient No. 1, 10.0 mcg in triacetin on clitoris"}, "[10]": {"conditions": "Patient No. 1, 50.0 mcg in triacetin on clitoris"}, "[11]": {"conditions": "Patient No. 2, 1.000 mcg in triacetin on clitoris"}, "[12]": {"conditions": "Example 2, 50 μg with 150 μg phentolamine hydrochloride"}, "[13]": {"conditions": "Example 6, 300 μg liposomal mixture after 50 mg naltrexone HCl 2 hours before, person, anorgasmia secondary to paroxetine"}},
  "data": [
    {"smiles": "CCCCC[C@H](O)/C=C/[C@H]1[C@H](O)CC(=O)[C@@H]1C/C=C\\CCCC(=O)O", "note": "[PGE-2, 7-[3-hydroxy-2-(3-hydroxy-1-octenyl)-5-oxocyclopentyl]-5-heptenoic acid]", "values": [
      {"measurement": "Temperature Change", "setting": "clitoris [1]; [5]", "result": 2.1, "unit": "° F."},
      {"measurement": "Potency relative to PGE-1 (clitoral temperature increase)", "setting": "clitoris [1]; Patient No. 1, 0.200 mcg PGE-2 about equal to 100 mcg PGE-1", "result": "about 500 times"},
      {"measurement": "Temperature Change", "setting": "clitoris [1]; [6]", "result": 2.4, "unit": "° F."},
      {"measurement": "Temperature Change", "setting": "clitoris [1]; [7]", "result": 4.5, "unit": "° F."},
      {"measurement": "Temperature Change", "setting": "clitoris [1]; [8]", "result": 2.3, "unit": "° F."},
      {"measurement": "Temperature Change", "setting": "clitoris [1]; [9]", "result": 4.8, "unit": "° F."},
      {"measurement": "Temperature Change", "setting": "clitoris [1]; [10]", "result": 2.0, "unit": "° F."},
      {"measurement": "Temperature Change", "setting": "clitoris [1]; Patient No. 2, 0.050 mcg in triacetin on clitoris", "result": 1.8, "unit": "° F."},
      {"measurement": "Temperature Change", "setting": "clitoris [1]; [11]", "result": 2.4, "unit": "° F."},
      {"measurement": "Temperature Change", "setting": "clitoris [1]; Patient No. 2, 10.0 mcg in triacetin on clitoris", "result": 2.0, "unit": "° F."},
      {"measurement": "Clitoral temperature effect (conclusion)", "setting": "clitoris [1]; both patients", "result": "increases in clitoral temperatures"},
      {"measurement": "Change in Clitoral Blood Flow", "setting": "clitoral artery; 0.020 mcg in triacetin", "result": 0, "unit": "cm/s"},
      {"measurement": "Change in Clitoral Blood Flow", "setting": "clitoral artery; 0.200 mcg in triacetin", "result": 11, "unit": "cm/s"},
      {"measurement": "Change in Clitoral Blood Flow, percent in brackets", "setting": "clitoral artery; 0.200 mcg in triacetin", "result": "+50%"},
      {"measurement": "Change in Clitoral Blood Flow", "setting": "clitoral artery; 0.400 mcg in triacetin", "result": 12, "unit": "cm/s"},
      {"measurement": "Change in Clitoral Blood Flow, percent in brackets", "setting": "clitoral artery; 0.400 mcg in triacetin", "result": "+92%"},
      {"measurement": "Change in Clitoral Blood Flow", "setting": "clitoral artery; 1.000 mcg in triacetin", "result": 10, "unit": "cm/s"},
      {"measurement": "Change in Clitoral Blood Flow, percent in brackets", "setting": "clitoral artery; 1.000 mcg in triacetin", "result": "+77%"},
      {"measurement": "Change in Clitoral Blood Flow", "setting": "clitoral artery; 10.0 mcg in triacetin", "result": 10, "unit": "cm/s"},
      {"measurement": "Change in Clitoral Blood Flow, percent in brackets", "setting": "clitoral artery; 10.0 mcg in triacetin", "result": "+100%"},
      {"measurement": "Change in Clitoral Blood Flow", "setting": "clitoral artery; 50.0 mcg in triacetin", "result": 2, "unit": "cm/s"},
      {"measurement": "Change in Clitoral Blood Flow, percent in brackets", "setting": "clitoral artery; 50.0 mcg in triacetin", "result": "+20%"},
      {"measurement": "Dose resulting in an increase in clitoral blood flow", "setting": "clitoral artery; triacetin solution with palmitic acid (PGDH inhibitor) and PGE2 in 10:1 weight ratio", "result": 0.4, "unit": "nanograms"},
      {"measurement": "Best dose", "setting": "clitoris [2]; Patient No. 1", "result": 0.400, "unit": "µg"},
      {"measurement": "Doses with adverse effects", "setting": "clitoris [2]; Patient No. 1", "result": 50, "unit": "µg"},
      {"measurement": "Subjective Response", "setting": "clitoris [2]; [5]", "result": "Rare tingle."},
      {"measurement": "Subjective Response", "setting": "clitoris [2]; [6]", "result": "Very excited."},
      {"measurement": "Subjective Response", "setting": "clitoris [2]; [7]", "result": "Very excited, 9/10."},
      {"measurement": "Subjective Response", "setting": "clitoris [2]; [8]", "result": "Excited, 7/10."},
      {"measurement": "Subjective Response", "setting": "clitoris [2]; [9]", "result": "Very excited."},
      {"measurement": "Subjective Response", "setting": "clitoris [2]; [10]", "result": "Excited. 2/10 abdominal"},
      {"measurement": "Dose with subjective reports of a sexual response", "setting": "clitoris [2]; Patient No. 1, triacetin solution with palmitic acid (PGDH inhibitor) and PGE2 in 10:1 weight ratio", "result": 2, "unit": "nanograms"},
      {"measurement": "Amount giving a sexual response", "setting": "clitoris [2]; Patient No. 2", "result": "≥ 0.050", "unit": "µg"},
      {"measurement": "Subjective Response", "setting": "clitoris [2]; [11]", "result": "Excited."},
      {"measurement": "Sexual response after application", "setting": "clitoris [3]; Example 1A, 20 μg with 150 μg phentolamine hydrochloride and 3 mg papaverine hydrochloride in liposomal solution, person, no sexual dysfunction", "result": "the clitoris became engorged and vaginal lubrication was noted"},
      {"measurement": "Sexual response after application", "setting": "clitoris [3]; Example 1B, 125 μg with 125 μg phentolamine, aqueous solution, 2 drops, same person", "result": "essentially the same response as in part A"},
      {"measurement": "Sexual response after application", "setting": "clitoris [3]; Example 1C, 125 μg alone in aqueous saline, 3 drops, same person", "result": "the same response described in part A but with reduced intensity"},
      {"measurement": "Duration of clitoral enlargement and sexual excitement", "setting": "clitoris [3]; [12]", "result": "gone within one hour after application of the composition"},
      {"measurement": "Time at which stimulation peaked after application", "setting": "clitoris [3]; [12]", "result": "around 15 minutes"},
      {"measurement": "Sexual response after application", "setting": "clitoris [3]; Example 2, 50 μg with 150 μg phentolamine hydrochloride, aqueous solution, person, no sexual dysfunction", "result": "warm tingling sexual feelings in their clitoris within one minute"},
      {"measurement": "Response to repeat dosing", "setting": "clitoris [3]; Example 2, repeat dose one and a half hours after the first dose", "result": "gave the same response as the first dose"},
      {"measurement": "Intensity of response rated by subject", "setting": "clitoris [3]; Example 2, scale of one (1) to ten (10), ten highest, 50 μg with 150 μg phentolamine hydrochloride", "result": 8},
      {"measurement": "Sexual response after application", "setting": "clitoris [3]; Example 5, 150 μg in liposomal solution, three drops, person with decreased sexual responsiveness", "result": "greatly increased their sexual desire and responsiveness"},
      {"measurement": "Sexual response after application", "setting": "clitoris [3]; [13]", "result": "had the best sexual experience of their life"},
      {"measurement": "Time to tingling sexual feelings spreading over body", "setting": "clitoris [3]; [13]", "result": "≤ 1", "unit": "min"},
      {"measurement": "Stability in composition", "setting": "[4]", "result": "especially stabile"}
    ]}
  ]
}
